Laboratory results published in patent publication US8449864B2 (The Board of Trustees of the Leland Stanford Junior …, priority 2006, dated 2013).
Peptide text beside a SMILES is read from it.

Legend:
PLCs containing PMCs = assay: NT degradation by peritoneal lavage cells (PLCs) containing peritoneal mast cells; format: cell-based, mouse; conditions: Kit+/+ PLCs pre-treated 15 min at 37° C. (chym 100 μM, CFp 10 μM, PCI 10 μg/ml, p03 100 nM); NT 10 μM, 30 min
Description: FIG. 5. Neurolysin and carboxypeptidase inhibitors prevent NT degradation by peritoneal mast cells. Kit^+/+ PLCs containing 5×10^4 PMCs were pre-treated for 15 min at 37° C. with one of the following protease inhibitors: chymostatin (chym, chymase inhibitor at 100 μM), CFp-Ala-Ala-Phe-pAB (CFp, […] at 10 μM only for PLCs), potato carboxypeptidase inhibitor (PCI, carboxypeptidase inhibitor at 10 μg/ml) and phosphodiepryl 03 (p03, neurolysin inhibitor at 100 nM for PLCs. Cells were then incubated with NT (10 μM) for 30 min at 37° C. Results are the percentage of NT remaining after incubation with cells compared to the starting concentration of NT (n=4-9 per group).
FIG. 12. (a), PLCs containing 1×10^4 PMCs obtained from either wild type C57BL/6 mice, Ntsr1-deficient (Ntsr1^−/−) mice or Ntsr2-deficient (Ntsr2^−/−) mice were incubated for 2 h with ^3H-5-hydroxytryptamine (3H-serotonin) at 37° C. and stimulated for 15 min at 37° C. with either ET-1 (4 μM) or NT (10 μM). (b), PLCs containing 1×10^4 PMCs obtained from C57BL/6 mice were incubated for 2 h with ^3H-serotonin and stimulated for 15 min with either ET-1 (4 μM) or NT (10 μM). In a separate set of experiments, cells were pre-incubated with BAPTA-AM (Sigma) ([…], 15 min at […]) before the addition of the stimuli. Results are mean ±SEM of 3 experiments. (c), mMC-CPA activity was measured in supernatants obtained from Kit^+/+ PLCs containing 5×10^4 PMCs that were stimulated for 30 min at 37° C. with either ET-1 (4 μM) or NT (10 μM). (d), PLCs containing 5×10^4 PMCs from C57BL/6J mice were pre-treated for 15 min at 37° C. with BAPTA-AM ([…], a Ca^2+ chelator that can reduce MC degranulation) and then incubated with NT (10 μM) for 30 min at 37° C. Results are expressed as the percentage of NT remaining after incubation with cells compared to that in samples of NT incubated in vehicle alone at 37° C. (data were pooled from triplicate determinations in two independent experiments that gave similar results). (e), Expression of mRNA for NT-receptors in the AtT20 neuroendocrine cell line, the mast cell line C1.MC/C57.1, C57BL/6J BMCMCs, Kit^+/+ BMCMCs and peritoneal mast cells purified from Kit^+/+ mice (PMCs).
NT, ET-1, C-reactive protein, and TNF measurements. Concentrations of NT, C-reactive protein, ET-1 and TNF were measured by ELISA (Bachem Peninsula Labs for NT; Biomedica, Vienna for C-reactive protein and ET-1; BD Biosciences for TNF). […] The detection limits for the ELISA kits were: 24 fmol/ml (NT), 0.048 fmol/ml (ET-1), 0.124 ng/ml (C-reactive protein) and […] (human TNF).

neurolysin (NLN) = biological target: T1, neurolysin (NLN) (Mus musculus, UniProt Q91YP2); assay: NT degradation by membrane and cytosol preparations of BMCMCs; format: biochemical; conditions: Pro-Ile 10 mM; NT 10 μM
T1 construct: membrane and cytosol preparations obtained from Kit^+/+ BMCMCs (2×10^6 cells/preparation); endogenous in cells; host or cells: Kit+/+ mouse bone marrow-derived cultured mast cells (BMCMCs), membrane and cytosol fractions
Description: FIG. 8. MC-associated neurolysin (NLN) contributes to the MCs' ability to reduce NT-induced hypotension. (a) Identification of NLN in the membrane and cytosol fractions of C1.MC/C57.1 MCs and C57BL/6J BMCMCs. […] Results are expressed as the percentage of NT remaining after incubation with membrane or cytosol preparations compared to that in samples of NT incubated in vehicle alone (n=3). (c, d) Degradation of NT (10 μM) by A23187 (5 μM)-activated Kit^+/+ BMCMCs (2×10^5) that were pre-treated with either empty vector, Neurolysin-short hairpin RNA (NLN-shRNA) or mouse MC carpoxypeptidase A-short hairpin RNA (mMC-CPA-shRNA). Cells were incubated with NT for 30 min at 37° C. Results are expressed as the percentage of NT remaining in the samples compared to that in samples of NT incubated in vehicle alone at 37° C. (n=3). (e) Changes in MAP versus baseline levels (=“0”, measured 3 min after injection of 300 μl saline, i.p.) at various times after injection of NT (6 nmol in 300 μl saline, i.p.) in Kit^W/W-v mice which had been engrafted i.p. with Kit^+/+ BMCMCs treated with either empty vector (empty vector MCs→Kit^W/W-v), NLN-shRNA (NLN-shRNA MCs→Kit^W/W-v) or mMC-CPA-shRNA (mMC-CPA-shRNA MCs→Kit^W/W-v). (f) MCs in the peritoneal cavity (arrows, MCs; scale bars, 100 μm; May Grunwald-modified Giemsa stain) and mesentery (arrows, MCs; scale bars, 100 μm; Czaba stain). […]

NTR1 = conditions: different tissues and cells from various species; cited from earlier work
PMCs = assay: Internalization of rhodamine-labelled peptide by PMCs (flow cytometry, confocal microscopy); format: cell-based, mouse
Description: FIG. 11. […] P<0.0001 versus corresponding NT- or ET-1-injected groups. […] (b) Flow cytometry analysis and confocal microscopy of C57BL/6 PMCs incubated with NT-rhodamine (50 μM) (red) at 4° C. (0 min) or placed at 37° C. for 5 or 15 min. PMCs were identified among other PLCs by flow cytometry by staining of IgE bound to the MCs (green). […] (c) PLCs containing 5×10^4 PMCs from either C57BL/6, Ntsr1^−/− or Ntsr2^−/− mice were incubated with NT (10 μM) for 30 min at 37° C. Results are expressed as the percentage of NT remaining after incubation with cells compared to that in samples of NT incubated in vehicle alone at 37° C. (data were pooled from triplicate determinations in two independent experiments that gave similar results). (d,e) Changes in MAP vs. baseline levels (=“0”, measured 3 min after injection of 300 μl saline, i.p.) at various times after injection of NT (6 nmol in 300 μl saline, i.p.) (d), and NT levels in the peritoneal fluids of these mice at 30 min after injection (e), in Kit^W/W-v mice that had been engrafted i.p. with BMCMCs of C57BL/6-Ntsr1^+/+ or -Ntsr1^−/− origin. (f) Survival after CLP (50% ligation; single puncture with 22 G needle) in Kit^W/W-v mice that had been engrafted i.p. with BMCMCs of C57BL/6-Ntsr1^+/+ or -Ntsr1^−/− origin.
FIGS. 19a-19f. (a-c) Flow cytometry analysis and (d, e) confocal microscopy of Ntsr+/+ (a, c) or Ntsr1−/−2−/− (b) PMCs pre-loaded with either NT-rhodamine (a, b) or scrambled peptide-rhodamine (c) ([…]) (red) that were placed at 37° C. for the indicated times. Control cells pre-loaded with either NT-rhodamine or scrambled peptide-rhodamine were maintained at 4° C. (“0 min”). PMCs were identified among other peritoneal lavage cells (PLCs) in confocal microscopy by green staining of IgE bound to the PMC surface and in flow cytometry by staining of c-Kit receptors. (f) Fold increase in mean fluorescence intensity by flow cytometry in PMCs versus other (non mast cell) PLCs obtained from Ntsr+/+ mice incubated for 15 min at 37° C. with NT-rhodamine when compared to control cells that were maintained at 4° C. for 15 min. Data are representative of (a-e) or pooled from (f) the three experiments performed, each of which gave similar results.
Flow cytomety and confocal microscopy. Cells were incubated for 16 h in DMEM+10% FCS+2 μg/ml IgE (hybridoma H1-DNP-ε26). Cells were washed and resuspended in DMEM+10% fetal calf serum (FCS)+NT-rhodamine (AnaSpec) (50 μM) and placed at 4° C. for 1 h. Some cells then were placed at 37° C. for 5 or 15 min. IgE Abs bound to PMCs were stained with FITC-conjugated anti-mouse IgE Abs (BD Biosciences). Levels of surface IgE were analyzed by flow cytometry, as described above.

T1 sequence (Q91YP2 38-704): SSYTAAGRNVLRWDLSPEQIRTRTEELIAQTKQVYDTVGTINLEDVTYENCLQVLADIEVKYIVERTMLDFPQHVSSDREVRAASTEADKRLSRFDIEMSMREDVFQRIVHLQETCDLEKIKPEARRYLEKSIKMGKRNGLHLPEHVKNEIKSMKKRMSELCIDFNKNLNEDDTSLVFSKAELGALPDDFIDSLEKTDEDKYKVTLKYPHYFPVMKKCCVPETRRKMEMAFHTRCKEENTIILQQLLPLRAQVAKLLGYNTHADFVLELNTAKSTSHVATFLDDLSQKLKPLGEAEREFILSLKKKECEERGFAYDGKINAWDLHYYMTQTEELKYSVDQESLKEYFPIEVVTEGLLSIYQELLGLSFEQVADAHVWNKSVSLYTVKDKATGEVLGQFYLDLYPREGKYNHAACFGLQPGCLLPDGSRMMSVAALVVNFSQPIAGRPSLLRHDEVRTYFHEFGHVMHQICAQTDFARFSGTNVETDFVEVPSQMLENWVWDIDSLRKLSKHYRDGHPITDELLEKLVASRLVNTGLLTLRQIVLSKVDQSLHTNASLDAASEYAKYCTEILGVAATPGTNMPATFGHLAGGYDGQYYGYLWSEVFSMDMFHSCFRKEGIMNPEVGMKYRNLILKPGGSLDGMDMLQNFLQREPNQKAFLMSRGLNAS

For CC(NC(=O)C(C)NC(CCc1ccccc1)C(=O)O)C(=O)NC(Cc1ccccc1)C(=O)Nc1ccc(C(=O)O)cc1 (stereo not drawn) [CFp-Ala-Ala-Phe-pAB], the “NT degradation by PLCs in presence of protease inhibitor” value (“NT degradation … of protease inhibitor” for short) (PLCs containing PMCs) was “did not prevent NT degradation”.

With CC[C@H](C)[C@H](NC(=O)[C@@H]1CCCN1)C(=O)O [Pro-Ile] (H-Pro-Ile-OH) the “NT degradation by membrane or cytosol preparations of BMCMCs” value (neurolysin (NLN)) was “almost completely inhibited”.

For COc1cccc(OC)c1-c1cc(C(=O)NC2(C(=O)O)C3CC4CC(C3)CC2C4)nn1-c1ccnc2cc(Cl)ccc12 (stereo not drawn) [SR48692], the “affinity for NTR1” value (NTR1) is listed as “nanomolar affinity”.

In the case of CC(C)C[C@H](NC(=O)[C@@H](NC(=O)N[C@@H](Cc1ccccc1)C(=O)O)[C@@H]1CCN=C(N)N1)C(=O)N[C@H](C=O)Cc1ccccc1 [chymostatin], the “NT degradation … of protease inhibitor” value (PLCs containing PMCs) is reported as “did not prevent NT degradation”.

In the case of NT-rhodamine: rhodamine-labelled NT, the “binding and internalization by PMCs” value (PMCs; C57BL/6 PMCs, 50 μM, 37° C. for 5 or 15 min) is reported as “bound and internalized”, the “internalization by PMCs lacking Ntsr1 and Ntsr2” value (PMCs; Ntsr1−/−2−/− PMCs, 10 µM, 37° C.) is reported as “peptide internalization did not occur” and the “uptake by PMCs compared with non mast cells of the peritoneal cavity” value (PMCs; Ntsr+/+ PLCs, 15 min at 37° C.) is reported as “more efficient”. For the same molecule, the “internalization by PMCs” value (PMCs; Ntsr+/+ PMCs, 10 µM, 37° C.) was “able to internalize”.

For “PCI: potato carboxypeptidase inhibitor; mouse MC carboxypeptidase A (mMC-CPA) inhibitor (QQHADPICNKPCKTHDDCSGAWFCQACWNSARTCGPYVG; UniProt P01075 1-39, looked up)”, the “NT degradation … of protease inhibitor” value (PLCs containing PMCs) was “significantly inhibited”.
